In the test the target is Protein kinase C alpha type (Homo sapiens, UniProt P17252). The test can be described thus: Displacement of [20-3H]phorbol-12,13-dibutyrate from a recombinant PK-C alpha.

As a reminder, the Ki is a measure of affinity in units of concentration, obtained from inhibition or displacement. With `CCCCCCCCCCCCC/C=C1\CC(CO)(COS(C)(=O)=O)OC1=O` (centres undefined), the inhibition constant Ki turned out to be 0.823 µM.

In the case of `CCCCCCCCCCCCCCS(=O)(=O)OCC1(CO)CCC(=O)O1` (centres undefined), the inhibition constant Ki was determined as 0.0907 µM.

Turning to `CCCCCCCCCCCCCC(=O)OCC1(CO)CCS(=O)(=O)O1` (centres undefined), the Ki amounted to 1.04 µM.

Regarding `CCCCCCCCCCCCC/C=C1\CC(CO)(COC(C)=O)OS1(=O)=O` (centres undefined), the Ki turned out to be 0.32 µM.

The values above are taken from ChEMBL document CHEMBL1130875, “Conformationally constrained analogues of diacylglycerol (DAG). 14. Dissection of the roles of the sn-1 and sn-2 carbonyls in DAG mimetics by isopharmacophore replacement” (Bioorg Med Chem Lett, 1998).
